From US20230184770A1, “Exosome Analysis And Brain Tumors” (Institute For Cancer Research d/b/a The Research Institute …, priority 2020, published 2023)

Key:
[1] = system: MB-luciferase cells injected into the cerebellum; experiment: In vivo bioluminescence imaging of MB-luciferase tumor growth in NSG mice; design: species or system mouse
Experimental: MB-luciferase cells were generated and stereotaxically injected into the cerebellum of 6- to 8-week-old NSG mice. Animals were monitored weekly using in vivo bioluminescence imaging and bioluminescence was detected as Day 0. The tumor-bearing mice were treated with vismodegib (50 mg/kg) for 7 days. These mice were separated into two groups randomly, one group was treated with a vehicle and another group was treated with GW4869 (1.25 mg/kg per day) for 3 weeks (FIG. 9A). They were monitored weekly using in vivo bioluminescence imaging (FIG. 9B).

[2] = system: medulloblastoma cells from Ptch1−/− mice; experiment: Medulloblastoma cell proliferation, 48 h treatment (Ki67 immunocytochemistry); type: cell-based, mouse
Experimental: (§1) To examine the functions of exosomes in medulloblastoma cell proliferation, tumor cells from Ptch1^−/− mice were isolated and treated with GW4869 or DMSO for 48 hours. […] To determine whether tumor cell-derived exosomes mediate vismodegib resistance, exosomes from medulloblastoma cells were collected and treated with 200 nM of vismodegib for 48 hours. Medulloblastoma cells from Ptch1^−/− mice were treated with DMSO, vismodegib, or vismodegib together with tumor cell-derived exosomes for 48 hours. Following treatment, medulloblastoma cells were harvested to examine their proliferation by immunocytochemistry (see, FIG. 4). […] Finally, exosomes from medulloblastoma cells were harvested and treated with DMSO or vismodegib for 48 hours.

[3] = system: Ras protein in exosomes derived from medulloblastoma cells; experiment: Western blotting of Ras in exosomes from treated MB cells; type: cell-based, mouse; conditions: exosomes from MB cells treated with DMSO or vismodegib for 48 hours
Experimental: as §1

[4] = system: Gli1 mRNA (shh signaling) in medulloblastoma cells; experiment: Gli1 mRNA levels in MB cells by q-PCR; type: cell-based, mouse; conditions: MB cells after 48 hours treatment
Experimental: as §1

Compound	tumor growth (bioluminescence) after 28 days, with vs without GW4869 ([1]; after vismodegib 50 mg/kg 7 days, GW4869 1.25 mg/kg per day 3 weeks vs vehicle, p<0.05)	medulloblastoma cell proliferation ([2]; tumor cells from Ptch1−/− mice, GW4869 vs DMSO, data not shown)	tumor growth (bioluminescence) ([1]; vismodegib 50 mg/kg for 7 days)	medulloblastoma cell proliferation (Ki67+ cells) ([2]; MB cells from Ptch1−/− mice, DMSO vs vismodegib vs vismodegib + exosomes, exosome-donor cells vismodegib 200 nM)	Ras protein in exosomes [3]	Gli1 mRNA levels [4]
Cl.Cl.O=C(C=Cc1ccc(C=CC(=O)Nc2ccc(C3=NCCN3)cc2)cc1)Nc1ccc(C2=NCCN2)cc1 [GW4869, N,N′-Bis[4-(4,5-dihydro-1H-imidazol-2-yl)phenyl]-3,3′-p-phenylene-bis-acrylamide dihydrochloride]	significant difference	significantly repressed medulloblastoma cell proliferation	–	–	–	–
CS(=O)(=O)c1ccc(C(=O)Nc2ccc(Cl)c(-c3ccccn3)c2)c(Cl)c1 [vismodegib]	–	–	significantly reduce tumor growth	significantly repressed tumor cell proliferation	readily detected	decreased
